Measured values as given in US20240208992A1, “MACROCYCLES AS CFTR MODULATORS” (Idorsia Pharmaceuticals Ltd, priority 2021, published 2024).

Target: human F508del-CFTR (Homo sapiens, UniProt P13569, DEL508-508)
Experiment: F508del-CFTR cell surface expression (corrector activity), DiscoveRx ß-galactosidase complementation chemiluminescence assay in recombinant U2OS cell line;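 note: U2OS cells co-expressing ProLink-tagged F508del-CFTR and a membrane-anchored enzyme acceptor, where more surface CFTR restores β-galactosidase activity measured by chemiluminescence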
Settings: for EC50: EC50, F508del-CFTR cell surface expression; for Emax: U2OS
[1] = U2OS cells, 16h compound incubation, geomean values
[2] = in relation to Emax of corrector lumacaftor (=100%), arithmetic mean values
[3] = U2OS cells, 16h compound incubation, geomean of several measurements
[4] = in relation to the Emax of the corrector lumacaftor (=100%), U2OS cells, 16h compound incubation, arithmetic mean

human F508del-CFTR, sequence (P13569 with tags, fused parts or gaps DEL508-508): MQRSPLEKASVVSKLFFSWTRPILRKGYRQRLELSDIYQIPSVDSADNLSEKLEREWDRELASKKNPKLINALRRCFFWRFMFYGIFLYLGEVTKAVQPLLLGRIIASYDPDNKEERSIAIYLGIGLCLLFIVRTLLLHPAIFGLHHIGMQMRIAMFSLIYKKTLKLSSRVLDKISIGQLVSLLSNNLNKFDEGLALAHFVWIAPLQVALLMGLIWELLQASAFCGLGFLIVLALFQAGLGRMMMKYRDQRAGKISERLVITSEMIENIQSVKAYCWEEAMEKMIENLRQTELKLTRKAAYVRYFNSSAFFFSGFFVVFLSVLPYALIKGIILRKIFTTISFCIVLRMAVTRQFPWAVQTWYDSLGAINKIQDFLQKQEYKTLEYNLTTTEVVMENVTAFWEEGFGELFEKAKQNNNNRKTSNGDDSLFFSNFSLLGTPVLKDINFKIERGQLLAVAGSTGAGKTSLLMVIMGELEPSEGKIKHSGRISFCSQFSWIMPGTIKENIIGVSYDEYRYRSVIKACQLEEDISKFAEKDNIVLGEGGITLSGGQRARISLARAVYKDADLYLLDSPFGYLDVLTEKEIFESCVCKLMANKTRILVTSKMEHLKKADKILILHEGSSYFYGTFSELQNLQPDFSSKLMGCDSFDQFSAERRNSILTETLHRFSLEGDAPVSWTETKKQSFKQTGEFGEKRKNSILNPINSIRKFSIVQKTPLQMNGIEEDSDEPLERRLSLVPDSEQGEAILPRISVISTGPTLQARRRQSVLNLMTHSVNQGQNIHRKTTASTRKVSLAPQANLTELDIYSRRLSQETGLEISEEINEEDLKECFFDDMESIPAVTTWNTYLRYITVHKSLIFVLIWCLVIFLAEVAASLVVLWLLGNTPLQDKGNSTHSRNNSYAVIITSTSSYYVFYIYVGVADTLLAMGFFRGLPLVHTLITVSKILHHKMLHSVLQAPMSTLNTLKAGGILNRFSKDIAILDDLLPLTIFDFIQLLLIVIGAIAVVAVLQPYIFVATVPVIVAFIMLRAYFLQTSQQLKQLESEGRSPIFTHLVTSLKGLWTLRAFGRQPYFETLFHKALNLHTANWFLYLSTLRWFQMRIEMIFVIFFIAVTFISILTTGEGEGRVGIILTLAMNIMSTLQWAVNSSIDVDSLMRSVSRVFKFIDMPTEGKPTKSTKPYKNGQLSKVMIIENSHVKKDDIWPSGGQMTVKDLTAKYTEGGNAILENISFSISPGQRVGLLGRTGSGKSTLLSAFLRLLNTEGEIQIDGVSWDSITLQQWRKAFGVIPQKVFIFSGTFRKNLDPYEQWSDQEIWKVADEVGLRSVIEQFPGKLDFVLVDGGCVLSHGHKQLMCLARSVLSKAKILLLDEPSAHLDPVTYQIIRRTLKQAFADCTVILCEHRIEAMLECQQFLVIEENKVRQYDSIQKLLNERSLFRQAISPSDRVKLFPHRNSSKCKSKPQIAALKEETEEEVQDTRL

Structure (SMILES)	EC50 [1] [µM]	Emax [2] [%]	EC50 [3] [µM]	Emax [4] [%]
CC(C)C[C@H]1C(=O)N(C)[C@H](Cc2nc(-c3ccc(F)cn3)no2)C(=O)N[C@H](Cc2ccccc2)COc2ccc3ncc(F)cc3c2C(=O)N[C@H](C(=O)NCCc2noc(C3CC3)n2)CC(=O)N1C [Example 794, (3S,7S,10R,13R)-13-benzyl-N-(2-(5-cyclopropyl-1,2,4-oxadiazol-3-yl)ethyl)-20-fluoro-10-((3-(5-fluoropyridin-2-yl)-1,2,4-oxadiazol-5-yl)methyl)-7-isobutyl-6,9-dimethyl-1,5,8,11-tetraoxo-1,2,3,4,5,6,7,8,9,10,11,12,13,14-tetradecahydro-[1]oxa[4,7,10,14]tetraazacycloheptadecino[16,17-f]quinoline-3-carboxamide]	0.083	354	–	–
COc1cc(CCNC(=O)[C@@H]2CC(=O)N(C)[C@@H](CC(C)C)C(=O)N(C)[C@H](Cc3nc(-c4ccc(F)cn4)no3)C(=O)N[C@H](Cc3ccccc3)COc3ccc4ncc(F)cc4c3C(=O)N2)on1 [Example 795, (3S,7S,10R,13R)-13-benzyl-20-fluoro-10-((3-(5-fluoropyridin-2-yl)-1,2,4-oxadiazol-5-yl)methyl)-7-isobutyl-N-(2-(3-methoxyisoxazol-5-yl)ethyl)-6,9-dimethyl-1,5,8,11-tetraoxo-1,2,3,4,5,6,7,8,9,10,11,12,13,14-tetradecahydro-[1]oxa[4,7,10,14]tetraazacycloheptadecino[16,17-f]quinoline-3-carboxamide]	0.141	384	–	–
COc1cc(CCNC(=O)[C@@H]2CC(=O)N(C)[C@@H](CC(C)C)C(=O)N3CCCC[C@@H]3C(=O)N[C@H](Cc3ccccc3)COc3ccc4cnc(C)cc4c3C(=O)N2)on1 [Example 796, (9S,13S,19aR,22R)-22-benzyl-13-isobutyl-N-(2-(3-methoxyisoxazol-5-yl)ethyl)-5,12-dimethyl-7,11,14,20-tetraoxo-7,8,9,10,11,12,13,14,17,18,19,19a,20,21,22,23-hexadecahydro-16H-pyrido[2′,1′:6,7][1]oxa[4,7,10,14]tetraazacycloheptadecino[16,17-f]isoquinoline-9-carboxamide]	0.156	321	–	–
CC(C)C[C@H]1C(=O)N(C)[C@H](C)C(=O)N[C@H](Cc2ccccc2)COc2ccc3ncc(F)cc3c2C(=O)N[C@H](C(=O)NCCc2cc(C3CC3)no2)CC(=O)N1C [Example 797, (3S,7S,10R,13R)-13-benzyl-N-(2-(3-cyclopropylisoxazol-5-yl)ethyl)-20-fluoro-7-isobutyl-6,9,10-trimethyl-1,5,8,11-tetraoxo-1,2,3,4,5,6,7,8,9,10,11,12,13,14-tetradecahydro-[1]oxa[4,7,10,14]tetraazacycloheptadecino[16,17-f]quinoline-3-carboxamide]	0.399	308	–	–
CC(C)C[C@H]1C(=O)N(C)[C@H](C)C(=O)N[C@H](Cc2ccccc2)COc2ccc3ncc(F)cc3c2C(=O)N[C@H](C(=O)NCCc2cc(C3CC3)on2)CC(=O)N1C [Example 798, (3S,7S,10R,13R)-13-benzyl-N-(2-(5-cyclopropylisoxazol-3-yl)ethyl)-20-fluoro-7-isobutyl-6,9,10-trimethyl-1,5,8,11-tetraoxo-1,2,3,4,5,6,7,8,9,10,11,12,13,14-tetradecahydro-[1]oxa[4,7,10,14]tetraazacycloheptadecino[16,17-f]quinoline-3-carboxamide]	–	–	0.197	324
CC(C)C[C@H]1C(=O)N(C)[C@H](C)C(=O)N[C@H](Cc2ccccc2)COc2ccc3ncc(F)cc3c2C(=O)N[C@H](C(=O)NCCc2noc(C3CC3)n2)CC(=O)N1C [Example 799, (3S,7S,10R,13R)-13-benzyl-N-(2-(5-cyclopropyl-1,2,4-oxadiazol-3-yl)ethyl)-20-fluoro-7-isobutyl-6,9,10-trimethyl-1,5,8,11-tetraoxo-1,2,3,4,5,6,7,8,9,10,11,12,13,14-tetradecahydro-[1]oxa[4,7,10,14]tetraazacycloheptadecino[16,17-f]quinoline-3-carboxamide]	–	–	0.258	335
